Test results published in US20240415819A1, “MACROCYCLIC COMPOUNDS AS PROTEASOME SUBUNIT BETA TYPE-5 INHIBITORS” (Lead Discovery Center GmbH, priority 2021, published 2024).

Columns and labels:
[1] = target: T1, β5 subunit of the human constitutive proteasome (CPS) (Homo sapiens, UniProt P28074); assay: β5 inhibition assay, human constitutive proteasome (Suc-LLVY-AMC); format: biochemical; conditions: IC50 class, Suc-LLVY-AMC substrate
T1 construct: purchased Boston Biochem E-360
Procedure: The enzymatic activity of the β5 subunit of the human constitutive proteasome (CPS) is analyzed. In another assay, which differs from the assay of the human constitutive proteasome only in using the human immunoproteasome (IPS) the enzymatic activity of the β5 subunit of the human immunoproteasome (IPS) is analyzed. […] Inhibition is indicated as IC50 [nM] (“-”=not measured).

[2] = target: T2, β5 subunit of the human immunoproteasome (IPS) (Homo sapiens, UniProt P28062); assay: β5 inhibition assay, human immunoproteasome (Suc-LLVY-AMC); format: biochemical; conditions: IC50 class, Suc-LLVY-AMC substrate
T2 construct: purchased Boston Biochem E-370
How it was run: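 Human immunoproteasome (1 nM final) was preincubated 10 min at RT with compound in 100 mM HEPES pH 7.5, 50 mM NaCl, 0.02% SDS, 1 mM DTT. Suc-LLVY-AMC (22.6 μM final) was then added for 4 h at RT in the dark. After stopping with 1 μM bortezomib, AMC fluorescence was read (ex 355/em 460 nm).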

HT-29 cells = assay: CellTiter-Glo luminescent cell viability assay with HT-29 cells (72h incubation); format: cell-based, human; conditions: Homo sapiens, HT-29, HT29 cells, read-out: CTG HT29
How it was run: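 400 cells per well in DMEM/10% FCS were dosed after 24 h and kept 72 h at 37 °C, 5% CO2. ATP-based luminescence (CellTiter-Glo) normalized to DMSO and 10 μM staurosporine controls; IC50 by dose-response fit.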

hPMBC = assay: Chymotrypsin-like ProteasomeGlo assay in hPBMC; format: cell-based; conditions: Homo sapiens; read-out: Pglo hPBMC
Source text: Chymotrypsin-like ProteasomeGlo assay in the B-cells isolated from PBMC's following compound addition (IC50). • 1. PBMC's will be isolated from human blood followed by B-cell isolation from the PBMC's using the Miltenyi Isolation Kit. • 2. This experiment will use the Chymotrypsin-like ProteasomeGlo read-out to generate IC50's following compound treatment. • 3. Dilute all compounds 1:100 for the assay. • 4. […] Repeat the DMSO transfer with lane 12. • 5. Lane 12 should not be seeded with any cells. Only medium! • 6. For all steps, make sure the samples and reagents remain cool! • 7. While dealing with the buffy coats, be careful to not let any exposed skin to be in direct contact with the blood.
For the initial steps and to make processing the buffy coats easier, separately process the buffy coats. • a. Cut the tube attached to the buffy coats carefully using a clean, sterile and fresh scalpel. • b. Transfer the blood into 2 individual 50 ml falcons. • c. Add an equal volume of DPBS to the blood in the falcons. • d. Add ˜20 ml of lymphocyte separating medium to two 50 ml falcons. • e. Carefully pour 15-20 ml of the blood+DPBS mix from step c. onto the lymphocyte separating medium from step d. • f. Centrifuge the falcons with the lymphocyte separating medium+blood mix at 800×g for 15 minutes using a swing-out rotor. • g. Following centrifugation, carefully remove the falcons from the centrifuge. • h. The following layers will be observed: • i. Aspirate the plasma layer off carefully without disturbing the different layers. • j. Remove the cell pellet using a pipette into two fresh 50 ml falcons. • k. Fill the falcons with the cells up to 50 ml with DPBS. • l. Centrifuge the falcons at 250×g for 10 minutes using a swing-out rotor (Brake-off). • m. Aspirate the complete DPBS off the cells without disturbing the cell pellet at the bottom of the falcon. • n. Re-suspend the cell pellet in 10 ml of 1×RBC lysis buffer. • o. Incubate the falcons at room temperature in the dark for 10 minutes. • p. After RBC lysis, centrifuge the tubes at 250×g for 10 minutes using a swing-out rotor (brake-off). • (*Note: If the cell pellet is still red or light red, repeat steps n. to p.!) • q. Re-suspend the cell pellet in DPBS up to 50 ml in the falcon. • r. Centrifuge the falcons at 250×g for 10 minutes using a swing-out rotor (Brake-off). • s. Aspirate the DPBS off the cells without disturbing the cell pellet at the bottom of the falcon. • t. Repeat the wash step as described in steps q. to s. 2× times more (total number of washes is 3×). • u. Aspirate the DPBS completely off the cell pellet after the last wash without disturbing the cell pellet. • v. Re-suspend the cell pellet in 20 ml of PBMC cell medium. • w.
• a. Remove the plates with cells from the incubator. • b. Take all the plates including the compound plate, intermediate plate and Staurosporine plate to the ECHO. • c. Click on “Open” in the ECHO software and select the protocol “QLI5_25ul_30 uM-Grenier”. • d. Follow the on-screen prompts and instructions once you click “Start” to insert the compound plate, intermediate plate and destination plates. • e. Change the final number of destination plates on the program. • f. Follow the on-screen prompts and instructions once you click “Start” to load the Staurosporine and destination plates. • g. Once all the compounds, DMSO and Staurosporine have been transferred, place the destination plates in a wet tissue box. • h. Place the destination plates back into the incubator and incubate at 37° C., 5% CO2 for 105 minutes. • i. Re-seal all the compound+Stauro diamond and intermediate plates and store in the dark. Chymotrypsin like ProteasomeGlo Assay • 1. Thaw the components of the ProteasomeGlo assay at room temperature including the ProteasomeGlo Buffer, the lyophilized Luciferin Detection Reagent and the Suc-LLVY-Glo Substrate. • 2. […]

[3] = tested on: A549 (human lung carcinoma cell line); assay: Glo assay of A549 cells (Table 3; ProteasomeGlo plating scheme); format: cell-based; conditions: Homo sapiens; A549 cells; read-out: PGLo A549
How it was run: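 IC50 values (nM) come from a cell-based chymotrypsin-like Proteasome-Glo luminescence assay. Compound exposure ran 105 min at 37° C.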

Row | SMILES | IC50 [1] [nM] | IC50 [2] [nM] | IC50 (HT-29 cells) [nM] | IC50 (hPMBC) [nM] | IC50 [3] [nM]
1 | CC(=O)N[C@H]1CC(=O)NCCCCOc2ccc(C)c(c2)CNC(=O)[C@H](CCc2ccccc2)NC1=O [Compound 168, N-((10S,13S)-1^4-methyl-8,11,14-trioxo-13-phenethyl-2-oxa-7,12,15-triaza-1(1,3)-benzenacyclohexadecaphane-10-yl)acetamide] | > 5000 | 1000 to 5000 | 100 to 500 | 1000 to 5000 | 
2 | CC(=O)N[C@H]1CC(=O)NCCCOc2ccc(C)c(c2)CNC(=O)[C@H](CCc2ccccc2)NC1=O [Compound 253, N-((9S,12S)-1^4-methyl-7,10,13-trioxo-12-phenethyl-2-oxa-6,11,14-triaza-1(1,3)-benzenacyclopentadecaphane-9-yl)acetamide] |  |  | 100 to 500 | > 5000 | 
3 | CC(=O)N[C@H]1CC(=O)N2CCCC(C2)Oc2ccc(C)c(c2)CNC(=O)[C@H](CCc2ccccc2)NC1=O (stereo partly drawn) [Compound 255, N-((7S,10S)-3^4-methyl-6,9,12-trioxo-7-phenethyl-2-oxa-5,8-diaza-1(3,1)-piperidina-3(1,3)-benzenacyclododecaphane-10-yl)acetamide] |  |  | 100 to 500 | > 5000 | > 5000
4 | CC(=O)N[C@H]1CC(=O)N(C)CCCOc2ccc(C)c(c2)CNC(=O)[C@H](CCc2ccccc2)NC1=O [Compound 256, N-((9S,12S)-1^4,6-dimethyl-7,10,13-trioxo-12-phenethyl-2-oxa-6,11,14-triaza-1(1,3)-benzenacyclopentadecaphane-9-yl)acetamide] |  |  | 100 to 500 | > 5000 | 
5 | CC(=O)N[C@H]1CC(=O)N2CCCC(COc3ccc(C)c(c3)CNC(=O)[C@H](CCc3ccccc3)NC1=O)C2 (stereo partly drawn) [Compound 257, N-((8S,11S)-4^4-methyl-7,10,13-trioxo-8-phenethyl-3-oxa-6,9-diaza-1(3,1)-piperidina-4(1,3)-benzenacyclotridecaphane-11-yl)acetamide] |  |  | 100 to 500 | 1000 to 5000 | 
6 | CC(=O)N[C@H]1CC(=O)N2CC(COc3ccc(C)c(c3)CNC(=O)[C@H](CCc3ccccc3)NC1=O)C2 [Compound 259, N-((8S,11S)-4^4-methyl-7,10,13-trioxo-8-phenethyl-3-oxa-6,9-diaza-1(3,1)-azetidina-4(1,3)-benzenacyclotridecaphane-11-yl)acetamide] |  |  | 100 to 500 | > 5000 | 
7 | CC(=O)N[C@H]1CC(=O)N2CCC2(C)COc2ccc(C)c(c2)CNC(=O)[C@H](CCc2ccccc2)NC1=O (stereo partly drawn) [Compound 260, N-((8S,11S)-1^2,4^4-dimethyl-7,10,13-trioxo-8-phenethyl-3-oxa-6,9-diaza-1(2,1)-azetidina-4(1,3)-benzenacyclotridecaphane-11-yl)acetamide] |  |  | 100 to 500 | > 5000 | 
8 | Cc1ccc2cc1CNC(=O)[C@H](CCc1ccccc1)NC(=O)[C@@H](NC(=O)OCc1ccccc1)CCCC(=O)N1CCC(CO2)C1 (stereo partly drawn) [Compound 351, benzyl ((8S, 11S)-4^4-methyl-7,10,15-trioxo-8-phenethyl-3-oxa-6,9-diaza-1(3,1)-pyrrolidina-4(1,3)-benzenacyclopentadecaphane-11-yl)carbamate] |  |  | 100 to 500 | < 100 | 100 to 500
9 | Cc1cc2cc(c1C)CNC(=O)[C@H](CCc1ccccc1)NC(=O)[C@@H](NC(=O)OCc1ccccc1)CCCC(=O)NCCCCO2 [Compound 354, benzyl ((12S,15S)-14,15-dimethyl-8,13,16-trioxo-15-phenethyl-2-oxa-7,14,17-triaza-1(1,3)-benzenacyclooctadecaphane-12-yl)carbamate] |  |  | 100 to 500 | < 100 | 
